Source: PMC4854767 (Clinical cancer research : an official journal of the …, 2016)
Like-named read-outs stand apart in the source and are kept apart here.

Key:
ZR75-1 cells = assay: Caspase-3/7-activatable luciferase reporter in ZR75-1 cells; assay type: cell-based, human; conditions: 1 µM fulv for 2 d before 1 µM GDC-0941 for 12 or 24 h, combination
MCF-7 tumors [1] = assay: MCF-7 xenograft tumor volume study; assay type: in vivo, mice
MCF-7 tumors [2] = conditions: for peak apoptosis, tumor cells (TUNEL): in combination with fulv
[3] = GDC-0941 intratumor pharmacokinetics in mice bearing MCF-7 xenografts; assay type: in vivo; conditions: for time of peak intratumor concentration: fulv pretreatment
in vivo = conditions: NOD-scid/IL2Rγ−/− (NSG; NOD.Cg-Prkdcscid Il2rgtm1Wjl/SzJ), mouse, plasma, po, 800 mg/kg
MCF-7 cells [4] = assay: Caspase-3/7-activatable luciferase reporter in MCF-7 cells; assay type: cell-based, human; conditions: 1 µM fulv for 2 d before 1 µM GDC-0941 for 12, 24 or 36 h, combination
[5] = GDC-0941 plasma pharmacokinetics in mice
MCF-7 cells [6] = assay: Sulforhodamine B; assay type: cell-based, human
[7] = tested on: HCI-003 patient-derived breast cancer xenografts; assay: HCI-003 patient-derived xenograft tumor volume study; assay type: in vivo, mice; conditions: fulv alone; HCI-003 xenografts
[8] = tested on: chronic eosinophilic leukemia; conditions: weekly dosing; cited from earlier work
[9] = low-dose (100 mg/kg), single dose

CS(=O)(=O)N1CCN(Cc2cc3nc(-c4cccc5[nH]ncc45)nc(N4CCOCC4)c3s2)CC1 [GDC-0941]
caspase-3/7 reporter activity (ZR75-1 cells): increased caspase-3/7 reporter activity compared to either agent alone
tumor response (MCF-7 tumors [1]; combination of fulv and GDC-0941, regardless of dose/schedule, MCF-7 tumors): near-complete tumor regression in most cases
body weight (MCF-7 tumors [1]; single-agent GDC-0941, different doses/schedules): without notable loss of body weight
tumor growth (MCF-7 tumors [1]; single-agent GDC-0941, different doses/schedules, MCF-7 tumors 500–1,000 mm^3): only slowed tumor growth
maintained apoptosis (TUNEL) (MCF-7 tumors [2]; fulv plus bi-daily low-dose GDC-0941 (3 d on, 4 d off), until 72 h): ~ 10%
apoptosis (TUNEL) (MCF-7 tumors [2]; fulv plus daily low-dose GDC-0941, maintained for 72 h): 8–10%
peak apoptosis, tumor cells (TUNEL) (MCF-7 tumors [2]; one low dose (100 mg/kg) GDC-0941, at 24 h): 6.7%
peak apoptosis, tumor cells (TUNEL) (MCF-7 tumors [2]; single high-dose (800 mg/kg) GDC-0941, at 48 h): 30.1%
peak apoptosis, tumor cells (TUNEL) (MCF-7 tumors [2]; two low doses (100 mg/kg at 0 and 12 h) GDC-0941, at 24 h): 15.9%
time until intratumor concentration below the detectable limit ([3]; high-dose (800 mg/kg)): ≤ 72 h
time of peak intratumor concentration ([3]; high-dose (800 mg/kg)): 9 h
time at which drug was undetectable in tumor ([3]; low-dose (100 mg/kg) with a second dose at 12 h): 36 h
time at which drug was undetectable in tumor [3, 9]: 18 h
time of peak intratumor concentration [3, 9]: 9 h
time of peak intratumor concentration ([3]; two low-dose treatments (100 mg/kg at 0 and 12 h)): 21 h
Tmax (in vivo): 15 to 30 min
caspase-3/7 reporter activity (MCF-7 cells [4]): increased caspase-3/7 reporter activity compared to either agent alone
time until plasma concentration below the limit of detection ([5]; 100 mg/kg): ≤ 24 h
plasma concentration in plateau phase ([5]; 100 mg/kg, plateau after 1 h, maintained for 8 h): 6.8 to 10.7 µM
time until plasma concentration below detectable limits ([5]; 800 mg/kg): ≤ 72 h
plasma concentration in plateau phase ([5]; 800 mg/kg, plateau maintained through 24 h): 7.9 to 15 µM
duration of exposure required to appreciably decrease viability (MCF-7 cells [6]; MCF-7 cells, GDC-0941 ≤0.25 µM): ≥ 24 h
growth inhibition (MCF-7 cells [6]; MCF-7 cells, continuous exposure to 1–2 µM GDC-0941): near-complete growth inhibition

C[C@]12CC[C@@H]3c4ccc(O)cc4C[C@@H](CCCCCCCCC[S+]([O-])CCCC(F)(F)C(F)(F)F)[C@H]3[C@@H]1CC[C@@H]2O (stereo partly drawn) [fulv]
tumor response (MCF-7 tumors [1]; fulv alone, larger MCF-7 tumors (500–1,000 mm^3)): generally unresponsive
tumor growth [7]: did not affect tumor growth
growth of MCF-7 cells (MCF-7 cells [6]; single-agent fulv (1 µM)): effectively inhibited growth

Cc1ccc(NC(=O)c2ccc(CN3CCN(C)CC3)cc2)cc1Nc1nccc(-c2cccnc2)n1 [imatinib]
patients in whom recurrence was prevented [8]: 7/7
